Earlier results on two substances are cited in publication PMC9500858 (International Journal of Molecular Sciences, 2022).

Read-outs that look alike come from different tables or passages of the source.

The conditions of data set [1]: 0.005 nmol/rat at 120 min and 0.02 nmol/rat at 30, 60 and 120 min; cited from earlier work. The source says: (§1) Since hybrid compounds have gained attention due to their potent multifunctional behavior with a more favorable profile in terms of possible side effects, much work devoted to such compounds can be found. PK20 and [Ile^9]PK20, which are hybrid structures encompassing both opioid and neurotensin pharmacophores, although modified, were designed and synthesized to reduce pain.

The subject of data set [2] is CA1 region of the hippocampus. The following applies: combined administration with NMDA, cited from earlier work.
Text: as §1

With “HELM PEPTIDE1{[Cc1cc(O)cc(C)c1C[C@H](N)C(=O)[*:2]].[dK].F.F.K.K.P.F.I.L}$$$$V2.0 (N-terminus assumed; SMILES CC[C@H](C)[C@H](NC(=O)[C@H](Cc1ccccc1)NC(=O)[C@@H]1CCCN1C(=O)[C@H](CCCCN)NC(=O)[C@H](CCCCN)NC(=O)[C@H](Cc1ccccc1)NC(=O)[C@H](Cc1ccccc1)NC(=O)[C@@H](CCCCN)NC(=O)[C@@H](N)Cc1c(C)cc(O)cc1C)C(=O)N[C@@H](CC(C)C)C(=O)O) [[Ile^9]PK20, analogue of PK20 with Ile instead of Tle at position 9]”, in data set [1], the “induced analgesia compared to PK20” value is reported as “significantly lower”.

With “HELM PEPTIDE1{[Cc1cc(O)cc(C)c1C[C@H](N)C(=O)[*:2]].[dK].F.F.K.K.P.F.[CC(C)(C)[C@H](N[*:1])C(=O)[*:2]].L}$$$$V2.0 (N-terminus assumed; SMILES Cc1cc(O)cc(C)c1C[C@H](N)C(=O)N[C@H](CCCCN)C(=O)N[C@@H](Cc1ccccc1)C(=O)N[C@@H](Cc1ccccc1)C(=O)N[C@@H](CCCCN)C(=O)N[C@@H](CCCCN)C(=O)N1CCC[C@H]1C(=O)N[C@@H](Cc1ccccc1)C(=O)N[C@H](C(=O)N[C@@H](CC(C)C)C(=O)O)C(C)(C)C) [PK20, opioid–neurotensin hybrid peptide]”, the “extent of damage to the CA1 region of the hippocampus” value in data set [2] (dose 25 ng/mL) is 1.47% ± 1.20; in data set [2] (dose 50 ng/mL) it was 5.18% ± 2.84; in data set [2] (dose 100 ng/mL), 6.82% ± 6.08.
